Results on nine molecules are retold here after patent US20240252488A1 (KOREA RESEARCH INSTITUTE OF CHEMICAL TECHNOLOGY, priority 2020, published 2024).

Assay [1] deals with FADD−/− Jurkat cells. The experiment in a line: Necroptosis inhibition assay, TNF-α-induced necroptosis (CellTiter-Glo 2.0). Format: cell-based, human. The settings on record: TNF-α 15 ng/mL; for Necroptosis inhibition assay (Rescue %) 1 μM: compound 1 μM; for Necroptosis inhibition assay (Rescue %) 10 μM: compound 10 μM. The method in brief:
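Necroptosis induced by 15 ng/mL TNF-α (final) for 20–24 h at 37 °C, after a 30 min room-temperature pretreatment of FADD-deficient Jurkat cells with 0.1, 1 or 10 μM compound. ATP-based luminescence gave viability, from which inhibition rate and cytotoxicity were derived.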
On the technique in general: In ATP-based viability assays light output follows the ATP content of the culture.

Assay [2] addresses T1, MLKL (Homo sapiens, UniProt Q8NB16).
T1 sequence (Q8NB16 1-471): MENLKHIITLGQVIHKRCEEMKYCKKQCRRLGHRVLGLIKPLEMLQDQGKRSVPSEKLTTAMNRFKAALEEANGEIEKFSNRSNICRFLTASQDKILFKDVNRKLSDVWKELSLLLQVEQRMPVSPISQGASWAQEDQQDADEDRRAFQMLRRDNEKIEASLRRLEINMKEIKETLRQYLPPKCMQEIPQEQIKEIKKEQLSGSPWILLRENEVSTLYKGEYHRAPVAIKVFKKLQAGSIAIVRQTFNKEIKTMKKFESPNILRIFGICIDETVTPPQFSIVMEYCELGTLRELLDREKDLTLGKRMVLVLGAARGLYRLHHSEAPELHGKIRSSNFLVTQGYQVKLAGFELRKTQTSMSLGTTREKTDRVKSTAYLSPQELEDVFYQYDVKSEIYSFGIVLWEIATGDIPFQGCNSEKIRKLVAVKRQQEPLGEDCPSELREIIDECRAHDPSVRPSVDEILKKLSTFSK
The experiment in a line: Measurement of binding affinity with MLKL receptor (competitive binding assay, Kd). The arrangement: made in house; host or cells: HEK 293 cell line (T7 phage in E. coli BL21-derived host is also described). The method in brief: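 MLKL was produced in HEK 293 cells and tagged with DNA for detection. Liganded beads were blocked with excess biotin and washed to cut non-specific binding, then compounds (111× DMSO stocks, 0.9% DMSO in assay) competed for binding. Eluate kinase was measured by qPCR for Kd.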

Assay [3] deals with T1, MLKL. The assay is described as follows: MLKL degradation assay in HepG2 cell line (western blot). The arrangement: endogenous in cells; host or cells: HepG2 or HaCaT. Format: cell-based. Particulars: cell line not given; for Degradation assay (Degradation %) 1 μM: compound 1 μM; for Degradation assay (Degradation %) 10 μM: compound 10 μM. The procedure:
MLKL degradation ability was evaluated in the following method.
1 mL of Human liver cancer cell line (HepG2 cell line) or human skin cell line (HaCaT cell line) was equally distributed into each well at 2.0×10^5 cells/mL in a 12-well cell culture plate. On the next day, the medium was replaced with a medium made so that the final concentration of test compound was 1 or 10 μM (1 mL/well), and incubated in 5% CO2, at 37° C. for 20-24 hours (Thermo scientific, Forma steri-cycle).
For protein preparation after incubation, cells were washed with 1×TBST, and 60 μL of RIPA lysis buffer containing Halt™ Protease and Phosphatase Inhibitor Cocktail was dispensed into each well. After scraping the cells with a scraper, the cells were recovered, and the pallet was homogenized and reacted on ice for 30 minutes. After the cells were centrifuged at 13,000 rpm, 10 minutes, 4° C., the supernatant was transferred to a new E-tube. For protein quantification, after dispensing sample and BCA (0-4 mg/ml) in a 96 well plate, 100 μL of BCA was dispensed and reacted in a 37° C. incubator for 30 minutes. After measuring the absorbance (SpectraMax, M5e, 562 nm), the amount of the sample was adjusted with the same concentration of protein and 4× Laemmli sample buffer, DW, and reacted at 100° C. for 5 minutes.
After assembling the MP TGX Precast Gel in the Mini-PROTEAN Tetra Cell, the same protein (10-15 μg) was added in an 8-10 μL volume per well, 1×Tris-Glycine Buffer was added, and loading was performed. After loading was completed, transfer was performed using Pierce G2 Fast Blotter and Pierce 1-Step Transfer Buffer. After completion of the transfer, 10 ml of SuperBlock™ Blocking Buffer was dispensed and reacted at room temperature for 10 minutes. 5% BSA containing the primary antibody was dispensed and reacted over night at 4° C. The next day, washing was performed three times with 1×TBST at room temperature for 10 minutes. 5% BSA containing the secondary antibody was dispensed and reacted at room temperature for 1 hour. Washing was performed three times with 1×TBST at room temperature for 10 minutes. The amount of protein expression was measured using chemiluminescence (LuminoGraph, ATTO).
Background: In western blotting, separated proteins are transferred to a membrane and probed.

Take `Nc1ncc(-c2ccc(N3CCN(CC4CCN(C(=O)CNc5ccc6c(c5)C(=O)N(C5CCC(=O)NC5=O)C6=O)CC4)CC3)nc2)nc1C(=O)OC(C(=O)Nc1ccc(F)cc1)c1ccccc1` (centres unmarked) [TDH-233, 2-((4-fluorophenyl)amino)-2-oxo-1-phenylethyl 3-amino-6-(6-(4-((1-((2-(2,6-dioxopiperidin-3-yl)-1,3-dioxoisoindolin-5-yl)glycyl)piperidin-4-yl)methyl)piperazin-1-yl)pyridin-3-yl)pyrazine-2-carboxylate]: in assay [1], the “Necroptosis inhibition assay (Rescue %) 1 μM” value stood at 23.37% and the “Necroptosis inhibition assay (Rescue %) 10 μM” value came to 4.71%. Besides, the affinity in assay [2], expressed as Kd, was 160 nM. Further, in assay [3], the “Degradation assay (Degradation %) 1 μM” value turned out to be 15.59% and the “Degradation assay (Degradation %) 10 μM” value amounted to 16.2%.

On to `Nc1ncc(-c2cnn(C3CCN(CCCCCCCCCCNC(=O)COc4ccc5c(c4)C(=O)N(C4CCC(=O)NC4=O)C5=O)CC3)c2)nc1C(=O)O[C@@H](C(=O)Nc1ccc(F)cc1)c1ccccc1` (stereo partly drawn) [TDH-164, (R)-2-((4-fluorophenyl)amino)-2-oxo-1-phenylethyl 3-amino-6-(1-(1-(10-(2-((2-(2,6-dioxopiperidin-3-yl)-1,3-dioxoisoindolin-5-yl)oxy)acetamido)decyl)piperidin-4-yl)-1H-pyrazol-4-yl)pyrazine-2-carboxylate], for which, in assay [1], the “Necroptosis inhibition assay (Rescue %) 1 μM” value amounted to 27.84% and the “Necroptosis inhibition assay (Rescue %) 10 μM” value was found to be 10.5%. In assay [2], the Kd (in general, the constant that tells how readily two partners part at equilibrium) is 20 nM. Further, in assay [3], the “Degradation assay (Degradation %) 1 μM” value amounted to 55.2% and the “Degradation assay (Degradation %) 10 μM” value amounted to 46.68%.

In the case of `Nc1ncc(-c2cnn(C3CCN(CC4CCN(C(=O)Cc5cccc(NC6=CC(=O)N(C7CCC(=O)NC7=O)C6=O)c5)CC4)CC3)c2)nc1C(=O)O[C@@H](C(=O)Nc1ccc(F)cc1)c1ccccc1` (stereo partly drawn) [TDH-516, (R)-2-((4-fluorophenyl)amino)-2-oxo-1-phenylethyl 3-amino-6-(1-(1-((1-(2-(3-((1-(2,6-dioxopiperidin-3-yl)-2,5-dioxo-2,5-dihydro-1H-pyrrol-3-yl)amino)phenyl)acetyl)piperidin-4-yl)methyl)piperidin-4-yl)-1H-pyrazol-4-yl)pyrazine-2-carboxylate], in assay [1] (FADD−/− Jurkat cells), the “Necroptosis inhibition assay (Rescue %) 1 μM” value is reported as 17.46% and the “Necroptosis inhibition assay (Rescue %) 10 μM” value worked out at 5.65%. In assay [2], this molecule yielded a Kd of 9.7 nM. Moreover, in assay [3], the “Degradation assay (Degradation %) 1 μM” value stood at 81.44% and the “Degradation assay (Degradation %) 10 μM” value is reported as 77.67%.

For the molecule `Nc1ncc(-c2cnn(C3CCN(CCOCCOCCNC(=O)C4CCN(c5cccc6c5C(=O)N(C5CCC(=O)NC5=O)C6=O)CC4)CC3)c2)nc1C(=O)N[C@@H](C(=O)Nc1ccc(F)cc1)c1ccccc1` (stereo partly drawn) [TDH-213, 3-amino-6-(1-(1-(2-(2-(2-(1-(2-(2,6-dioxopiperidin-3-yl)-1,3-dioxoisoindolin-4-yl)piperidine-4-carboxamido)ethoxy)ethoxy)ethyl)piperidin-4-yl)-1H-pyrazol-4-yl)-N-((R)-2-((4-fluorophenyl)amino)-2-oxo-1-phenylethyl)pyrazine-2-carboxamide], in assay [1], the “Necroptosis inhibition assay (Rescue %) 1 μM” value is 18.34% and the “Necroptosis inhibition assay (Rescue %) 10 μM” value was 44.98%. In assay [2], the Kd turned out to be 330 nM. In assay [3], the “Degradation assay (Degradation %) 1 μM” value came out at 4.45% and the “Degradation assay (Degradation %) 10 μM” value stood at 8.28%.

Take `Nc1ncc(-c2cnn(C3CCN(CCOCCOCCNC(=O)COc4ccc5c(c4)C(=O)N(C4CCC(=O)NC4=O)C5=O)CC3)c2)nc1C(=O)O[C@@H](C(=O)Nc1ccc(F)cc1)c1ccccc1` (stereo partly drawn) [TDH-167, (R)-2-((4-fluorophenyl)amino)-2-oxo-1-phenylethyl 3-amino-6-(1-(1-(2-(2-(2-(2-((2-(2,6-dioxopiperidin-3-yl)-1,3-dioxoisoindolin-5-yl)oxy)acetamido)ethoxy)ethoxy)ethyl)piperidin-4-yl)-1H-pyrazol-4-yl)pyrazine-2-carboxylate]: in assay [1], the “Necroptosis inhibition assay (Rescue %) 1 μM” value is on record as 45.5% and the “Necroptosis inhibition assay (Rescue %) 10 μM” value turned out to be 38.58%. Also, in assay [2], the affinity, expressed as Kd, was 1.7 nM. In assay [3], the “Degradation assay (Degradation %) 1 μM” value is listed as 36.7% and the “Degradation assay (Degradation %) 10 μM” value stood at 60.91%.

Consider `Nc1ncc(-c2cnn(C3CCN(CC4CCN(C5=CC(=O)N(C6CCC(=O)NC6=O)C5=O)CC4)CC3)c2)nc1C(=O)O[C@@H](C(=O)Nc1ccc(F)cc1)c1ccccc1` (stereo partly drawn) [TDH-521, (R)-2-((4-fluorophenyl)amino)-2-oxo-1-phenylethyl 3-amino-6-(1-(1-((1-(1-(2,6-dioxopiperidin-3-yl)-2,5-dioxo-2,5-dihydro-1H-pyrrol-3-yl)piperidin-4-yl)methyl)piperidin-4-yl)-1H-pyrazol-4-yl)pyrazine-2-carboxylate], for which, in assay [1] (FADD−/− Jurkat cells), the “Necroptosis inhibition assay (Rescue %) 1 μM” value is reported as 0.16% and the “Necroptosis inhibition assay (Rescue %) 10 μM” value came out at 1.33%. The molecule further had a Kd in assay [2] of 1.5 nM. In assay [3], the “Degradation assay (Degradation %) 1 μM” value was determined as 91.54% and the “Degradation assay (Degradation %) 10 μM” value is 78.62%.

For `Nc1ncc(-c2cnn(C3CCN(CCC4CCN(C(=O)CC5CCN(c6cccc7c6C(=O)N(C6CCC(=O)NC6=O)C7=O)CC5)CC4)CC3)c2)nc1C(=O)O[C@@H](C(=O)Nc1ccc(F)cc1)c1ccccc1` (stereo partly drawn) [TDH-366, (R)-2-((4-fluorophenyl)amino)-2-oxo-1-phenylethyl 3-amino-6-(1-(1-(2-(1-(2-(1-(2-(2,6-dioxopiperidin-3-yl)-1,3-dioxoisoindolin-4-yl)piperidin-4-yl)acetyl)piperidin-4-yl)ethyl)piperidin-4-yl)-1H-pyrazol-4-yl)pyrazine-2-carboxylate], in assay [1], the “Necroptosis inhibition assay (Rescue %) 1 μM” value was 45.56% and the “Necroptosis inhibition assay (Rescue %) 10 μM” value was determined as 22.39%. For the same molecule, in assay [2], the Kd was determined as 1.2 nM. Besides, in assay [3], the “Degradation assay (Degradation %) 1 μM” value is reported as 87.27% and the “Degradation assay (Degradation %) 10 μM” value was 80.23%.

`Nc1ncc(-c2cnn(C3CCN(CC4CCN(C(=O)CNc5cccc6c5C(=O)N(C5CCC(=O)NC5=O)C6=O)CC4)CC3)c2)nc1C(=O)N[C@@H](C(=O)Nc1ccc(F)cc1)c1ccccc1` (stereo partly drawn) [TDH-206, 3-amino-6-(1-(1-((1-((2-(2,6-dioxopiperidin-3-yl)-1,3-dioxoisoindolin-4-yl)glycyl)piperidin-4-yl)methyl)piperidin-4-yl)-1H-pyrazol-4-yl)-N-((R)-2-((4-fluorophenyl)amino)-2-oxo-1-phenylethyl)pyrazine-2-carboxamide] registered a Kd in assay [2] of 240 nM. In assay [3], the “Degradation assay (Degradation %) 1 μM” value amounted to 21.78% and the “Degradation assay (Degradation %) 10 μM” value was 14.94%.

In assay [2], `Nc1ncc(-c2ccc(N3CCN(CCOCCOCCNC(=O)CNc4cccc5c4C(=O)N(C4CCC(=O)NC4=O)C5=O)CC3)nc2)nc1C(=O)OC(C(=O)Nc1ccc(F)cc1)c1ccccc1` (centres unmarked) [TDH-259, 2-((4-fluorophenyl)amino)-2-oxo-1-phenylethyl 3-amino-6-(6-(4-(2-(2-(2-(2-((2-(2,6-dioxopiperidin-3-yl)-1,3-dioxoisoindolin-4-yl)amino)acetamido)ethoxy)ethoxy)ethyl)piperazin-1-yl)pyridin-3-yl)pyrazine-2-carboxylate] gave a Kd of 50 nM. In assay [3], the “Degradation assay (Degradation %) 1 μM” value stood at 18.61% and the “Degradation assay (Degradation %) 10 μM” value is 30.36%.
